Key:
Assay in all cases: Test C postemergence
Format in all cases: in vivo
[1] = tested on: large (Lg) crabgrass (Digitaria sanguinalis); conditions: Digitaria sanguinalis, post-emergence, 336 h, Postemergence, scale 0 to 100, read-out: Plant response rating, Crabgrass, Large; for pest or weed control at 16 g/ha: 16 g ai/ha; for pest or weed control at 31 g/ha: 31 g ai/ha; for pest or weed control at 62 g/ha: 62 g ai/ha; for pest or weed control at 125 g/ha: 125 g ai/ha
[2] = tested on: velvetleaf (Abutilon theophrasti); conditions: Abutilon theophrasti, post-emergence, Postemergence, scale 0 to 100, read-out: Plant response rating, Velvetleaf; for pest or weed control at 31 g/ha: 31 g ai/ha; for pest or weed control at 62 g/ha: 62 g ai/ha; for pest or weed control at 125 g/ha: 125 g ai/ha
[3] = tested on: yellow nutsedge (Cyperus esculentus); conditions: Cyperus, post-emergence, 336 h, Postemergence, scale 0 to 100, read-out: Plant response rating, Nutsedge, Yellow; for pest or weed control at 31 g/ha: 31 g ai/ha; for pest or weed control at 62 g/ha: 62 g ai/ha; for pest or weed control at 125 g/ha: 125 g ai/ha
[4] = tested on: kochia (Kochia scoparia); conditions: Bassia scoparia, post-emergence, Postemergence, scale 0 to 100, read-out: Plant response rating, Kochia; for pest or weed control at 16 g/ha: 16 g ai/ha; for pest or weed control at 31 g/ha: 31 g ai/ha; for pest or weed control at 62 g/ha: 62 g ai/ha; for pest or weed control at 125 g/ha: 125 g ai/ha
[5] = tested on: blackgrass (Alopecurus myosuroides); conditions: Alopecurus myosuroides, post-emergence, 336 h, Postemergence, scale 0 to 100, read-out: Plant response rating, Blackgrass; for pest or weed control at 16 g/ha: 16 g ai/ha; for pest or weed control at 31 g/ha: 31 g ai/ha; for pest or weed control at 62 g/ha: 62 g ai/ha; for pest or weed control at 125 g/ha: 125 g ai/ha
[6] = tested on: chickweed (common chickweed, Stellaria media); conditions: Stellaria media, post-emergence, Postemergence, scale 0 to 100, read-out: Plant response rating, Chickweed; for pest or weed control at 16 g/ha: 16 g ai/ha; for pest or weed control at 31 g/ha: 31 g ai/ha; for pest or weed control at 62 g/ha: 62 g ai/ha; for pest or weed control at 125 g/ha: 125 g ai/ha
[7] = tested on: morningglory (Ipomoea coccinea); conditions: Ipomoea, post-emergence, 336 h, Postemergence, scale 0 to 100, read-out: Plant response rating, Morningglory; for pest or weed control at 31 g/ha: 31 g ai/ha; for pest or weed control at 62 g/ha: 62 g ai/ha; for pest or weed control at 125 g/ha: 125 g ai/ha
[8] = tested on: giant foxtail (Setaria faberii); conditions: Setaria faberi, post-emergence, 336 h, Postemergence, scale 0 to 100, read-out: Plant response rating, Foxtail, Giant; for pest or weed control at 16 g/ha: 16 g ai/ha; for pest or weed control at 31 g/ha: 31 g ai/ha; for pest or weed control at 62 g/ha: 62 g ai/ha; for pest or weed control at 125 g/ha: 125 g ai/ha
[9] = tested on: oilseed rape (Brassica napus); conditions: Brassica napus, post-emergence, Postemergence, scale 0 to 100, read-out: Plant response rating, Oilseed Rape; for plant injury at 31 g/ha: 31 g ai/ha; for plant injury at 62 g/ha: 62 g ai/ha; for plant injury at 125 g/ha: 125 g ai/ha
[10] = tested on: Italian ryegrass (Lolium multiflorum); conditions: Lolium multiflorum, post-emergence, 336 h, Postemergence, scale 0 to 100, read-out: Plant response rating, Ryegrass, Italian; for pest or weed control at 31 g/ha: 31 g ai/ha; for pest or weed control at 62 g/ha: 62 g ai/ha; for pest or weed control at 125 g/ha: 125 g ai/ha
[11] = tested on: johnsongrass (Sorghum halepense); conditions: Sorghum halepense, post-emergence, 336 h, Postemergence, scale 0 to 100, read-out: Plant response rating, Johnsongrass; for pest or weed control at 16 g/ha: 16 g ai/ha; for pest or weed control at 31 g/ha: 31 g ai/ha; for pest or weed control at 62 g/ha: 62 g ai/ha; for pest or weed control at 125 g/ha: 125 g ai/ha
[12] = tested on: barnyardgrass (Echinochloa crus-galli); conditions: Echinochloa crus-galli, post-emergence, Postemergence, scale 0 to 100, read-out: Plant response rating, Barnyardgrass; for pest or weed control at 16 g/ha: 16 g ai/ha; for pest or weed control at 31 g/ha: 31 g ai/ha; for pest or weed control at 62 g/ha: 62 g ai/ha; for pest or weed control at 125 g/ha: 125 g ai/ha
[13] = tested on: pigweed (Amaranthus retroflexus); conditions: Amaranthus retroflexus, post-emergence, 336 h, Postemergence, scale 0 to 100, read-out: Plant response rating, Pigweed; for pest or weed control at 31 g/ha: 31 g ai/ha; for pest or weed control at 62 g/ha: 62 g ai/ha; for pest or weed control at 125 g/ha: 125 g ai/ha
[14] = tested on: wild oat (Avena fatua); conditions: Avena fatua, post-emergence, Postemergence, scale 0 to 100, read-out: Plant response rating, Oat, Wild; for pest or weed control at 31 g/ha: 31 g ai/ha; for pest or weed control at 62 g/ha: 62 g ai/ha; for pest or weed control at 125 g/ha: 125 g ai/ha
[15] = tested on: winter wheat (Triticum aestivum); conditions: Triticum aestivum, post-emergence, 336 h, Postemergence, scale 0 to 100, read-out: Plant response rating, Wheat; for plant injury at 31 g/ha: 31 g ai/ha; for plant injury at 62 g/ha: 62 g ai/ha; for plant injury at 125 g/ha: 125 g ai/ha

Structure (SMILES): N#Cc1cccc(Oc2ncc(Cl)cn2)c1Oc1ncc(Br)cn1 [Compound 4, 2-[(5-bromo-2-pyrimidinyl)oxy]-3-[(5-chloro-2-pyrimidinyl)oxy]benzonitrile]
- pest or weed control at 16 g/ha [1]: 5%
- pest or weed control at 31 g/ha [1]: 5%
- pest or weed control at 62 g/ha [1]: 5%
- pest or weed control at 125 g/ha [1]: 10%
- pest or weed control at 31 g/ha [2]: 40%
- pest or weed control at 62 g/ha [2]: 50%
- pest or weed control at 125 g/ha [2]: 60%
- pest or weed control at 31 g/ha [3]: 0%
- pest or weed control at 62 g/ha [3]: 10%
- pest or weed control at 125 g/ha [3]: 10%
- pest or weed control at 16 g/ha [4]: 60%
- pest or weed control at 31 g/ha [4]: 60%
- pest or weed control at 62 g/ha [4]: 80%
- pest or weed control at 125 g/ha [4]: 100%
- pest or weed control at 16 g/ha [5]: 0%
- pest or weed control at 31 g/ha [5]: 0%
- pest or weed control at 62 g/ha [5]: 0%
- pest or weed control at 125 g/ha [5]: 10%
- pest or weed control at 16 g/ha [6]: 20%
- pest or weed control at 31 g/ha [6]: 40%
- pest or weed control at 62 g/ha [6]: 50%
- pest or weed control at 125 g/ha [6]: 80%
- pest or weed control at 31 g/ha [7]: 80%
- pest or weed control at 62 g/ha [7]: 85%
- pest or weed control at 125 g/ha [7]: 95%
- pest or weed control at 16 g/ha [8]: 40%
- pest or weed control at 31 g/ha [8]: 40%
- pest or weed control at 62 g/ha [8]: 45%
- pest or weed control at 125 g/ha [8]: 35%
- plant injury at 31 g/ha [9]: 10%
- plant injury at 62 g/ha [9]: 45%
- plant injury at 125 g/ha [9]: 60%
- pest or weed control at 31 g/ha [10]: 0%
- pest or weed control at 62 g/ha [10]: 0%
- pest or weed control at 125 g/ha [10]: 5%
- pest or weed control at 16 g/ha [11]: 5%
- pest or weed control at 31 g/ha [11]: 5%
- pest or weed control at 62 g/ha [11]: 5%
- pest or weed control at 125 g/ha [11]: 5%
- pest or weed control at 16 g/ha [12]: 5%
- pest or weed control at 31 g/ha [12]: 5%
- pest or weed control at 62 g/ha [12]: 5%
- pest or weed control at 125 g/ha [12]: 5%
- pest or weed control at 31 g/ha [13]: 65%
- pest or weed control at 62 g/ha [13]: 80%
- pest or weed control at 125 g/ha [13]: 95%
- pest or weed control at 31 g/ha [14]: 5%
- pest or weed control at 62 g/ha [14]: 10%
- pest or weed control at 125 g/ha [14]: 10%
- plant injury at 31 g/ha [15]: 0%
- plant injury at 62 g/ha [15]: 5%
- plant injury at 125 g/ha [15]: 5%

Structure (SMILES): N#Cc1cccc(Oc2ncc(Cl)cn2)c1Oc1ccc(Cl)cn1 [Compound 16, 2-[(5-chloro-2-pyridinyl)oxy]-3-[(5-chloro-2-pyrimidinyl)oxy]benzonitrile]
- pest or weed control at 16 g/ha [1]: 10%
- pest or weed control at 31 g/ha [1]: 15%
- pest or weed control at 62 g/ha [1]: 15%
- pest or weed control at 125 g/ha [1]: 20%
- pest or weed control at 31 g/ha [2]: 65%
- pest or weed control at 62 g/ha [2]: 60%
- pest or weed control at 125 g/ha [2]: 70%
- pest or weed control at 31 g/ha [3]: 10%
- pest or weed control at 62 g/ha [3]: 10%
- pest or weed control at 125 g/ha [3]: 15%
- pest or weed control at 16 g/ha [4]: 90%
- pest or weed control at 31 g/ha [4]: 90%
- pest or weed control at 62 g/ha [4]: 90%
- pest or weed control at 125 g/ha [4]: 95%
- pest or weed control at 16 g/ha [5]: 5%
- pest or weed control at 31 g/ha [5]: 5%
- pest or weed control at 62 g/ha [5]: 5%
- pest or weed control at 125 g/ha [5]: 10%
- pest or weed control at 16 g/ha [6]: 25%
- pest or weed control at 31 g/ha [6]: 60%
- pest or weed control at 62 g/ha [6]: 80%
- pest or weed control at 125 g/ha [6]: 80%
- pest or weed control at 31 g/ha [7]: 90%
- pest or weed control at 62 g/ha [7]: 90%
- pest or weed control at 125 g/ha [7]: 95%
- pest or weed control at 16 g/ha [8]: 10%
- pest or weed control at 31 g/ha [8]: 15%
- pest or weed control at 62 g/ha [8]: 20%
- pest or weed control at 125 g/ha [8]: 35%
- plant injury at 31 g/ha [9]: 70%
- plant injury at 62 g/ha [9]: 80%
- plant injury at 125 g/ha [9]: 50%
- pest or weed control at 31 g/ha [10]: 10%
- pest or weed control at 62 g/ha [10]: 5%
- pest or weed control at 125 g/ha [10]: 15%
- pest or weed control at 16 g/ha [11]: 5%
- pest or weed control at 31 g/ha [11]: 5%
- pest or weed control at 62 g/ha [11]: 10%
- pest or weed control at 125 g/ha [11]: 10%
- pest or weed control at 16 g/ha [12]: 10%
- pest or weed control at 31 g/ha [12]: 15%
- pest or weed control at 62 g/ha [12]: 15%
- pest or weed control at 125 g/ha [12]: 20%
- pest or weed control at 31 g/ha [13]: 80%
- pest or weed control at 62 g/ha [13]: 85%
- pest or weed control at 125 g/ha [13]: 100%
- pest or weed control at 31 g/ha [14]: 10%
- pest or weed control at 62 g/ha [14]: 5%
- pest or weed control at 125 g/ha [14]: 5%
- plant injury at 31 g/ha [15]: 0%
- plant injury at 62 g/ha [15]: 5%
- plant injury at 125 g/ha [15]: 0%

From patent publication US20170190671A1, “BIS(ARYL)CATECHOL DERIVATIVES AS HERBICIDES” (E I DU PONT DE NEMOURS AND COMPANY, priority 2014, published 2017)
